CC(=O)Nc1ccc(OC(=O)c2ccccc2OC(C)=O)cc1
solubility (mole fraction)
Details | 278.15 K | 283.15 K | 288.15 K | 293.15 K | 298.15 K | 303.15 K | 308.15 K | 313.15 K | 318.15 K
in DMF | 0.0175 | 0.0187 | 0.0201 | 0.0214 | 0.0229 | 0.0244 | 0.0258 | 0.0274 | 0.029
in NMP | 0.0222 | 0.0255 | 0.0289 | 0.0326 | 0.0368 | 0.041 | 0.0461 | 0.0515 | 0.0571
in ethanol | 0.000261 | 0.00035 | 0.000454 | 0.000588 | 0.000755 | 0.000947 | 0.0012 | 0.00151 | 0.00191
in isopropanol | 0.000141 | 0.000191 | 0.000257 | 0.000346 | 0.000456 | 0.000604 | 0.000781 | 0.00103 | 0.00131
in water | 5.59e-07 | 8.56e-07 | 1.19e-06 | 1.74e-06 | 2.45e-06 | 3.49e-06 | 4.82e-06 | 6.74e-06 | 8.99e-06

Reference: BigSolDB 2.1
